In US20220169632A1, “METHODS AND MATERIALS FOR INCREASING OR MAINTAINING NICOTINAMIDE MONONUCLEOTIDE ADENYLYL TRANSFERASE-2 (NMNAT2) POLYPEPTIDE LEVELS” (University of Pittsburgh - Of the Commonwealth System of …, priority 2019, published 2022):

System: NMNAT2
Test: NMNAT2-Hibit nano-luciferase activity in stably transfected U87MG cells, various concentrations, 24 hours
Format: cell-based
Details: U87MG cells stably transfected with NMNAT2-Hibit luc plasmid
Protocol: Selected compounds were tested in vitro. U87MG cells were stably transfected with NMNAT2-Hibit luc plasmid. Cells were treated with a test compound at various concentrations for 24 hours. Cells were then collected and assayed for nano-luciferase activity.

Row | Compound | E: compound efficacy for NMNAT2 activation (concentration giving >25% increase in NMNAT2 luciferase activity)
1 | COc1cccc(CNC(=O)c2ccc3c(c2)c(C)c(C)n3Cc2cccc(F)c2)c1 [BC20116] | ++ (“++” >25% increase in NMNAT2 luciferase activity at >1 μM ≤25 μM.)
2 | CC(Cc1ccco1)NC(=O)CCCc1cn(Cc2cccc(F)c2)c2ccccc12 (centres unmarked) [BC20145] | ++ (“++” >25% increase in NMNAT2 luciferase activity at >1 μM ≤25 μM.)
3 | Cc1cccc(CNC(=O)C2CCc3c(c4ccccc4n3Cc3ccncc3)C2)c1 (centres unmarked) [BC20281] | + (“+” >25% increase in NMNAT2 luciferase activity at >25 μM.)
4 | O=C(CCCc1cn(Cc2ccccc2F)c2ccccc12)NCc1ccco1 [BC20121] | ++ (“++” >25% increase in NMNAT2 luciferase activity at >1 μM ≤25 μM.)
5 | Cc1cccc(NC(=O)CCCc2cn(Cc3cccc(F)c3)c3ccccc23)c1C [BC20149] | ++ (“++” >25% increase in NMNAT2 luciferase activity at >1 μM ≤25 μM.)
6 | COc1ccccc1CNC(=O)[C@H]1C[C@@H]1c1cn(Cc2ccc(C)cc2)c2ccccc12 (racemic) [BC20298] | + (“+” >25% increase in NMNAT2 luciferase activity at >25 μM.)
7 | O=C(NCc1ccncc1)C1CCCc2c1c1ccccc1n2Cc1cccc(F)c1 (centres unmarked) [BC20380] | + (“+” >25% increase in NMNAT2 luciferase activity at >25 μM.)
8 | O=C1c2cccc3c2c(cn3Cc2cccc(F)c2)CCN1CCOc1ccc(F)cc1 [BC20342] | + (“+” >25% increase in NMNAT2 luciferase activity at >25 μM.)
9 | O=C1CC(c2cn(Cc3cccc(F)c3)c3ccccc23)CCN1Cc1ccccc1F (centres unmarked) [BC20318] | + (“+” >25% increase in NMNAT2 luciferase activity at >25 μM.)
10 | Cc1cccc(CNC(=O)Cn2c3c(c4ccccc42)CC(C(=O)NCc2ccco2)CC3)c1 (centres unmarked) [BC20288] | ++ (“++” >25% increase in NMNAT2 luciferase activity at >1 μM ≤25 μM.)
11 | Cc1ccc(C)c(Cn2c3c(c4ccccc42)CC(C(=O)NCc2ccncc2)CC3)c1 (centres unmarked) [BC20190] | + (“+” >25% increase in NMNAT2 luciferase activity at >25 μM.)
12 | Cc1ccc(C)c(Cn2c(C(F)F)c(CCC(=O)NCC3CCCO3)c3ccccc32)c1 (centres unmarked) [BC20392] | + (“+” >25% increase in NMNAT2 luciferase activity at >25 μM.)
13 | Cc1ccc(C)c(Cn2c(C(F)F)c(CCC(=O)NCc3cccnc3)c3ccccc32)c1 [BC20403] | + (“+” >25% increase in NMNAT2 luciferase activity at >25 μM.)
14 | Cc1ccc(C)c(Cn2cc([C@H]3C[C@@H]3C(=O)NCc3cccnc3)c3ccccc32)c1 (racemic) [BC20351] | + (“+” >25% increase in NMNAT2 luciferase activity at >25 μM.)
15 | COc1cccc(CNC(=O)c2ccc3c(c2)c(C)c(C)n3Cc2ccccc2F)c1 [BC20196] | + (“+” >25% increase in NMNAT2 luciferase activity at >25 μM.)
16 | CCCCN(CC)Cc1ccc(CNC(=O)CCCc2cn(Cc3cccc(F)c3)c3ccccc23)o1 [BC20212] | +++ (“+++” >25% increase in NMNAT2 luciferase activity at ≤1 μM.)
17 | O=C(CCCc1cn(Cc2ccccc2F)c2ccccc12)NCc1cccnc1 [BC20132] | ++ (“++” >25% increase in NMNAT2 luciferase activity at >1 μM ≤25 μM.)
18 | O=C(NCc1ccncc1)C1CCc2c(c3ccccc3n2Cc2cccc(F)c2)C1 (centres unmarked) [BC20228] | ++ (“++” >25% increase in NMNAT2 luciferase activity at >1 μM ≤25 μM.)
19 | COc1cccc(CNC(=O)C2CCc3c(c4ccccc4n3CC(=O)NCc3ccco3)C2)c1 (centres unmarked) [BC20241] | ++ (“++” >25% increase in NMNAT2 luciferase activity at >1 μM ≤25 μM.)
20 | COc1ccccc1CNC(=O)C1CCc2c(c3ccccc3n2Cc2cc(C)ccc2C)C1 (centres unmarked) [BC20187] | + (“+” >25% increase in NMNAT2 luciferase activity at >25 μM.)
21 | Cc1ccc(C)c(Cn2c3c(c4ccccc42)CC(C(=O)NCc2ccccc2F)CC3)c1 (centres unmarked) [BC20217] | + (“+” >25% increase in NMNAT2 luciferase activity at >25 μM.)
22 | O=C1c2cccc3c2c(cn3Cc2cccc(F)c2)CCN1Cc1cccc(F)c1 [BC20275] | + (“+” >25% increase in NMNAT2 luciferase activity at >25 μM.)
23 | COc1cccc(CNC(=O)N2CCc3c(c4ccccc4n3Cc3cccc(F)c3)C2)c1 [BC20310] | + (“+” >25% increase in NMNAT2 luciferase activity at >25 μM.)
24 | Cc1cccc(CNC(=O)C2CCc3c(c4ccccc4n3CC(=O)NCc3ccco3)C2)c1 (centres unmarked) [BC20239] | ++ (“++” >25% increase in NMNAT2 luciferase activity at >1 μM ≤25 μM.)

Row | Compound | E: compound efficacy for NMNAT2 activation (concentration giving >25% increase in NMNAT2 luciferase activity)
25 | Cc1ccccc1Cn1c(C)c(C)c2cc(C(=O)NCC3CCCO3)ccc21 (centres unmarked) [BC20201] | + (“+” >25% increase in NMNAT2 luciferase activity at >25 μM.)
26 | Cc1c(C)n(Cc2cccc(F)c2)c2ccc(C(=O)N3CCN(C(=O)c4ccco4)CC3)cc12 [BC20117] | ++ (“++” >25% increase in NMNAT2 luciferase activity at >1 μM ≤25 μM.)
27 | Cc1cccc(Cn2cc(CCCC(=O)NCc3cccnc3)c3ccccc32)c1 [BC20173] | ++ (“++” >25% increase in NMNAT2 luciferase activity at >1 μM ≤25 μM.)
28 | Cc1ccc(C)c(Cn2c3c(c4ccccc42)CN(C(=O)NCC2CCCO2)CC3)c1 (centres unmarked) [BC20252] | + (“+” >25% increase in NMNAT2 luciferase activity at >25 μM.)
29 | Cc1cccc(CNC(=O)C2CCc3c(c4ccccc4n3Cc3cc(C)ccc3C)C2)c1 (centres unmarked) [BC20186] | + (“+” >25% increase in NMNAT2 luciferase activity at >25 μM.)
30 | Cc1cccc(NC(=O)N2CCc3c(c4ccccc4n3Cc3ccncc3)C2)c1C [BC20336] | + (“+” >25% increase in NMNAT2 luciferase activity at >25 μM.)
31 | Cc1ccccc1Cn1c(C)c(C)c2cc(C(=O)NC(C)Cc3ccco3)ccc21 (centres unmarked) [BC20207] | + (“+” >25% increase in NMNAT2 luciferase activity at >25 μM.)
32 | COc1cccc(CNC(=O)CCCc2cn(Cc3ccccc3C)c3ccccc23)c1 [BC20156] | ++ (“++” >25% increase in NMNAT2 luciferase activity at >1 μM ≤25 μM.)
33 | Cc1ccccc1CNC(=O)c1ccc2c(c1)c(C)c(C)n2Cc1ccccc1F [BC20105] | ++ (“++” >25% increase in NMNAT2 luciferase activity at >1 μM ≤25 μM.)
34 | COc1ccccc1CNC(=O)Cn1c2c(c3ccccc31)CC(C(=O)NCc1ccco1)CC2 (centres unmarked) [BC20289] | + (“+” >25% increase in NMNAT2 luciferase activity at >25 μM.)
35 | Cc1ccc(C)c(Cn2cc([C@H]3C[C@@H]3C(=O)N3CCc4occc4C3)c3ccccc32)c1 (racemic) [BC20359] | + (“+” >25% increase in NMNAT2 luciferase activity at >25 μM.)
36 | Cc1ccccc1Cn1c(C)c(C)c2cc(C(=O)NCc3cccnc3)ccc21 [BC20208] | ++ (“++” >25% increase in NMNAT2 luciferase activity at >1 μM ≤25 μM.)
37 | Cc1cccc(Cn2cc(CCCC(=O)NCc3ccco3)c3ccccc32)c1 [BC20163] | +++ (“+++” >25% increase in NMNAT2 luciferase activity at ≤1 μM.)
38 | CC(Cc1ccco1)NC(=O)C1CCCc2c1c1ccccc1n2Cc1cccc(F)c1 (centres unmarked) [BC20377] | + (“+” >25% increase in NMNAT2 luciferase activity at >25 μM.)
39 | Cc1ccc(Cn2cc(C3CCN(Cc4ccncc4)C(=O)C3)c3ccccc32)cc1 (centres unmarked) [BC20267] | ++ (“++” >25% increase in NMNAT2 luciferase activity at >1 μM ≤25 μM.)
40 | COc1ccccc1CNC(=O)C1CCc2c(c3ccccc3n2CC(=O)NCc2ccco2)C1 (centres unmarked) [BC20240] | ++ (“++” >25% increase in NMNAT2 luciferase activity at >1 μM ≤25 μM.)
41 | O=C(Cn1c2c(c3ccccc31)CN(C(=O)NCCc1ccccc1)CC2)NCc1ccco1 [BC20329] | + (“+” >25% increase in NMNAT2 luciferase activity at >25 μM.)
42 | COc1cccc(CNC(=O)CCCc2cn(Cc3ccccc3F)c3ccccc23)c1 [BC20128] | ++ (“++” >25% increase in NMNAT2 luciferase activity at >1 μM ≤25 μM.)
43 | Cc1ccc(C)c(Cn2cc3c4c(cccc42)C(=O)N(Cc2cccc(F)c2)CC3)c1 [BC20270] | + (“+” >25% increase in NMNAT2 luciferase activity at >25 μM.)
44 | Cc1ccc(C)c(Cn2c3c(c4ccccc42)CC(C(=O)NCc2ccco2)CC3)c1 (centres unmarked) [BC20102] | ++ (“++” >25% increase in NMNAT2 luciferase activity at >1 μM ≤25 μM.)
45 | CCCCN(CC)Cc1ccc(CNC(=O)C2CCCc3c2c2ccccc2n3Cc2ccc(C)cc2)o1 (centres unmarked) [BC20391] | ++ (“++” >25% increase in NMNAT2 luciferase activity at >1 μM ≤25 μM.)
46 | Cc1ccc(C)c(Cn2c(C(F)F)c(CCC(=O)NCc3ccncc3)c3ccccc32)c1 [BC20404] | ++ (“++” >25% increase in NMNAT2 luciferase activity at >1 μM ≤25 μM.)
47 | Cc1ccc(C)c(Cn2c(C(F)F)c(CCC(=O)NCc3ccc(C)o3)c3ccccc32)c1 [BC20367] | ++ (“++” >25% increase in NMNAT2 luciferase activity at >1 μM ≤25 μM.)
